Our source for the Kd values is paper PMC6376178 (Theranostics, 2019).

For the assay, the target named is T1, USP5 (ubiquitin-specific protease 5) (Homo sapiens, UniProt P45974).
T1 sequence (P45974 2-858): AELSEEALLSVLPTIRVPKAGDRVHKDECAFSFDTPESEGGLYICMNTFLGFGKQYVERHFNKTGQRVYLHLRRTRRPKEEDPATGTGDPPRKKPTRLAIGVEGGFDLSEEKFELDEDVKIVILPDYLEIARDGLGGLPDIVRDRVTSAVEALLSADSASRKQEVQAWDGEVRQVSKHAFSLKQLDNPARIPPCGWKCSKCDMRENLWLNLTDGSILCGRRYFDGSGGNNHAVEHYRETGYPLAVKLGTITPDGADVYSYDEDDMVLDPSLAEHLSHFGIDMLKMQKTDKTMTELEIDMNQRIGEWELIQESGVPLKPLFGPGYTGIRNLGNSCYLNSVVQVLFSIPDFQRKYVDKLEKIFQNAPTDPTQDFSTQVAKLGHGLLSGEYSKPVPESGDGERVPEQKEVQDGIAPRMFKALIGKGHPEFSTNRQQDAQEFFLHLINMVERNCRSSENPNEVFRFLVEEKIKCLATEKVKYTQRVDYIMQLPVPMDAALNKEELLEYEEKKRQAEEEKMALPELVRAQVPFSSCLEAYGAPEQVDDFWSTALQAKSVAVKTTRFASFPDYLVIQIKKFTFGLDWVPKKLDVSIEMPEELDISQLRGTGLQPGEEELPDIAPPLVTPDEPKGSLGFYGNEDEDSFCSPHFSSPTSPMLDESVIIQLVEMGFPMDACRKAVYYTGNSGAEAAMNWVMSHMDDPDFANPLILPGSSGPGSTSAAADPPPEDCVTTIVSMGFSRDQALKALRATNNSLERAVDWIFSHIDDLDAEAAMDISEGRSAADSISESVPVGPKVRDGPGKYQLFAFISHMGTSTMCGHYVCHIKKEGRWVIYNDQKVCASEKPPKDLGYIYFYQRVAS
Description: SPR. It is filed as binding.

`COc1ccc(-c2coc3cc(O)ccc3c2=O)cc1` [Formononetin] came in with an equilibrium dissociation constant (Kd) of 25.1 µM.
